{"source": "patent US20220074923A1", "about": "“METHODS OF IDENTIFYING PARKIN-MEDIATED MITOPHAGY ACTIVATING AGENTS” (THE GOVERNING COUNCIL OF THE UNIVERSITY OF TORONTO, priority 2018, published 2022)", "key": {"ROCK2": {"molecular_target": "ROCK2 (Homo sapiens, UniProt O75116)", "sequence (O75116 whole entry)": "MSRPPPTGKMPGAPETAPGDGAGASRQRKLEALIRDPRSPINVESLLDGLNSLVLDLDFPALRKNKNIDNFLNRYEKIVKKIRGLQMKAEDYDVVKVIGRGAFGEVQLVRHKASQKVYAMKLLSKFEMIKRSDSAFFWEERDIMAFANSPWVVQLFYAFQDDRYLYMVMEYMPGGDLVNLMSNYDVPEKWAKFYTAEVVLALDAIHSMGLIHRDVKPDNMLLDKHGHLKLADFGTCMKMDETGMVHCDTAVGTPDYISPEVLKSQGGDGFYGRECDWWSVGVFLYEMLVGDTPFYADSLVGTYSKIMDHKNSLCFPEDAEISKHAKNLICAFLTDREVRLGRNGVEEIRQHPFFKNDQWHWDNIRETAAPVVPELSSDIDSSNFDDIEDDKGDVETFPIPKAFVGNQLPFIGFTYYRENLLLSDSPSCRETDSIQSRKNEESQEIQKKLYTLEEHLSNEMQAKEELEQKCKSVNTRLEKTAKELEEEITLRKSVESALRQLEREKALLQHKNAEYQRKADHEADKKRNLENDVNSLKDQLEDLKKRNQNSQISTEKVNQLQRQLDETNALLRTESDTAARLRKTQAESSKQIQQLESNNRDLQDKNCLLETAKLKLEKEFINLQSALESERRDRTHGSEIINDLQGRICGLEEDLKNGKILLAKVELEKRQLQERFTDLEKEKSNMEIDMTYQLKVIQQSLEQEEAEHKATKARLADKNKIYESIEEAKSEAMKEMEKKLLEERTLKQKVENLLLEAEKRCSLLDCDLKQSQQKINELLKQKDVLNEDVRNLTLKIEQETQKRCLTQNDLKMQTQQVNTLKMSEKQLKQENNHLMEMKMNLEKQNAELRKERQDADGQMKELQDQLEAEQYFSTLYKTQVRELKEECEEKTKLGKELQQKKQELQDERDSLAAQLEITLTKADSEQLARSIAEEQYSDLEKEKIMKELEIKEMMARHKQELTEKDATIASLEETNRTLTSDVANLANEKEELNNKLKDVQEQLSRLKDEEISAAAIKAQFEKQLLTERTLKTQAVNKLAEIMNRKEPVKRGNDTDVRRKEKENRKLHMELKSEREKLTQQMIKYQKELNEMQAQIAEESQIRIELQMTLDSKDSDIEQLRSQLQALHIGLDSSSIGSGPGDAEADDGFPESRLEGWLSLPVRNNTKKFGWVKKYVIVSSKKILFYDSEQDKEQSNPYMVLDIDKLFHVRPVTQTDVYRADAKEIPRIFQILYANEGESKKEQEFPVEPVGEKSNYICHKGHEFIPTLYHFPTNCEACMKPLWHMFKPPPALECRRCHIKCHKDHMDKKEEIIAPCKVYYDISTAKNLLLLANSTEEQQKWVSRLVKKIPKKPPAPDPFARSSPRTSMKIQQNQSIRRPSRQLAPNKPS", "conditions": "biochemical and cell-based assays, previous studies; cited from earlier work"}, "HeLa cells": {"tested_on": "HeLa cells", "assay": "Mito-QC assay (targeting of mitochondria to lysosomes)", "assay_type": "cell-based", "conditions": "0.5 μM 2 h pre-treatment, 10 μM CCCP 6 h with E-64 and leupeptin", "method": "HeLa cells were seeded into 6-well plates containing glass coverslips and allowed to adhere overnight. Cells were co-transfected with RGOMP25 and Cerulean-Parkin plasmids 24 hours prior to treatments. E-64 and leupeptin were added along with either DMSO or 10 μM CCCP for 6 hours prior followed by a PBS wash, fixation with 4% PFA and a final PBS wash prior to mounting onto glass slides with Fluoromount.\nCells were treated with 50 μM chloroquine for 16 hours prior to addition of E64, leupeptin, SR3677 and CCCP in the indicated treatment group. For the in vivo mitoQC assays, 5 7-day old male TH-GAL4>UAS-mitoQC were placed into vials containing water (control), sublethal 1 mM paraquat, 1 mM SR3677 alone and in combination with paraquat for 7 days. […] Fly brains were mounted in VectaShield™ mounting medium for imaging using the Zeiss LSM700 confocal fluorescence microscope with 40× 1.4 NA Oil Plan-APOCRAMAT objective and the appropriate lasers and filter. […]\nQuantification of the RG assay was done using Fiji software. […] A red/green fluorescence intensity ratio was determined for each pixel. Pixels were considered red-only if the red/green fluorescence ratio was greater than or equal to 1.5. The area of red-only pixels over the total non-background area was determined and averaged across 4 independent trials in which at least 20 cells were quantified per treatment."}, "HEK293 GFP Parkin cells": {"tested_on": "HEK293 GFP Parkin cells", "assay": "Immunoblotting of mitochondrial protein degradation after CCCP", "assay_type": "cell-based", "method": "(a) HEK293 GFP Parkin cells were treated with varying doses of SR3677 for 2 hours prior to induction of mitophagy with 10 μM CCCP for one hour. The percentage of cells with mitochondrial Parkin increased in a dose-dependent manner. […] Cell lysates were harvested, proteins were separated by SDS-PAGE and immunoblotting was performed with anti-Mfn2 and anti-actin antibodies. (c) Ponceau VDAC1 levels in each sample normalized to Ponceau staining. (d) Mfn2/actin levels in CCCP treated cells. (e) Densitometry analysis was performed to quantify Mfn2 and VDAC1 levels in each sample (n=4 independent experiments).\nHEK293 GFP Parkin cells co-treated with 0.5 μM SR3677 or DMSO and 10 μM CCCP for the indicated time (hours). Cell lysates were separated by SDS-PAGE and immunoblotting was performed to assess turnover of IMM/matrix substrates (A) ATP5A, (B) UQCRC2 and (C) COXIV. Densitometry analysis was performed. Protein levels were normalized to Ponceau. Data is expressed as mean±s.e.m (n=6, 7 and 8 for a, b and c, respectively. 4) P-values were determined by paired student's t-test, *P<0.05.\nLysates were harvested using lysis buffer (0.1M Tris HCl, 0.01% SDS, pH 9) with 1× protease inhibitor cocktail (BioShop, PIC002.1). Lysates were then heated at 95° C. for 20 minutes with vortexing performed at 5-minute intervals. The BCA assay (Pierce, 23227) was performed to determine protein concentration, to standardize protein loading across samples to be compared. 12% SDS-PAGE gels were used to run samples to be analyzed for LC3 conversation and for Tom20 and 10% gels were run for all other samples. Transfer of proteins onto PVDF membrane (Immobilon, IPVH00010) was performed at 110V for 80 minutes or at 36V for 8 hours. Membranes were blocked with 5% skim milk in TBST (1×TBS, 0.1% Tween-20 [BioShop, 1M23298]) for 30 minutes prior to incubation in primary antibodies at a dilution of 1:1000 for all antibodies except anti-ROCK2 and anti-LC3, which were used at a dilution of 1:5000. Visualization of proteins was performed using ECL (BioRad, 11705062).\nDensitometry was performed by normalizing bands corresponding to the protein of interest to a loading control such as actin using ImageLab 6.0 software (BioRad)."}, "S2R+ cells": {"tested_on": "S2R+ cells", "assay": "mitoSOX mitochondrial superoxide staining", "assay_type": "cell-based", "conditions": "co-treatment with paraquat", "method": "A) Staining was performed with mitoSOX Red Mitochondrial Superoxide dye. B) Quantification of the fluorescence intensity of the mitoSOX probe in the indicated treatments (n=3). Data is presented as mean±s.e.m. P-values were determined by paired student's t-test, *P-value<0.05.\nWhether SR3677 may protect against paraquat-induced phenotypes by interfering with paraquat's activity was also assessed. Paraquat gives rise to mitochondrial superoxide species that can be detected using mitoSOX, a fluorescent probe that is targeted to mitochondria, where it may be oxidized by superoxides. The oxidized mitoSOX species fluoresces upon encountering nucleic acid. The fluorescence intensity of Schneider's S2-R^+ cells, a cell line derived from dissociated embryos with a flat morphology amenable to imaging, was assessed following treatments with paraquat or paraquat and SR3677."}, "[1]": {"conditions": "0.5 μM co-treated with 10 μM CCCP"}}, "data": [{"smiles": "CN(C)CCOc1cc(-c2cn[nH]c2)ccc1NC(=O)[C@@H]1COc2ccccc2O1", "note": "[SR3677]", "values": [{"measurement": "ROCK2 inhibition", "setting": "ROCK2", "value": "selectively inhibits ROCK2"}, {"measurement": "mitochondrial targeting to lysosomes (red-only mitochondrial area)", "setting": "HeLa cells", "value": "increased the extent of mitochondrial targeting to lysosomes"}, {"measurement": "degradation of ATP5A", "setting": "HEK293 GFP Parkin cells; [1]", "value": "increased the degradation"}, {"measurement": "degradation of COXIV", "setting": "HEK293 GFP Parkin cells; [1]", "value": "increased the degradation"}, {"measurement": "degradation of UQCRC2", "setting": "HEK293 GFP Parkin cells; [1]", "value": "enhanced"}, {"measurement": "fold lower concentration than Y39983 for comparable Mfn2 degradation", "setting": "HEK293 GFP Parkin cells; 0.5 μM vs 10 μM", "value": 20, "unit": "fold"}, {"measurement": "turnover of VDAC1", "setting": "HEK293 GFP Parkin cells; 0.5 μM, 10 μM CCCP", "value": "increased the turnover"}, {"measurement": "concentration administered to enhance Mfn2 degradation", "setting": "HEK293 GFP Parkin cells; 10 μM CCCP", "value": 0.5, "unit": "µM"}, {"measurement": "Mfn2 degradation following CCCP", "setting": "HEK293 GFP Parkin cells; 2 h pre-treatment, 10 μM CCCP, Y39983 10 μM, SR3677 0.5 μM", "value": "Increased degradation of Mfn2"}, {"measurement": "paraquat-mediated increase in mitochondrial superoxide levels", "setting": "S2R+ cells", "value": "does prevent the paraquat-mediated increase in mitochondrial superoxide levels"}]}]}
